Assay results from publication PMC11384084 (Journal of Traditional and Complementary Medicine, 2024).
“Also recorded” adds a separate entry of the source. Read-outs that look alike come from different tables or passages of the source.

Experiments:
[1] = Peak plasma levels (Cmax) of compounds and metabolites on day 14 by UHPLC-MS/MS; format: in vivo, human; conditions: for Cmax: male, human, plasma, 2 weeks, read-out: UA plasma level, median (Cmax day 14)
Procedure: The compounds and their metabolites were measured using a UHPLC-MS/MS system on a Hybrid quadrupole-Orbitrap mass spectrometer (Q Exactive, Thermo Scientific, Waltham, MA, USA) hyphenated with a Thermo Scientific Vanquish Flex ultrahigh-pressure liquid chromatography (UHPLC) system via an electrospray ionization source. For the parallel reaction monitoring (PRM) scan, the resolution, automatic gain control (AGC) target, and maximum injection time (IT) were set at 17500, 2e5, and 100 ms, respectively. The NCE values for each metabolite were individually set, and the details are provided in Supplemental Table 1. The All-Ion Fragmentation (AIF) scan consisted of a scan range of m/z 100–750 with an NCE of 10. The resolution, AGC target, and maximum IT for the AIF scan were set at […], and 200 ms, respectively. More details regarding the preparation and calibration are provided in the Supplementary Methods section.

[2] = test system: healthy men; test: Phase 1 clinical trial safety evaluation, adverse events by CTCAE v4.03; format: in vivo, human; conditions: for Toxicity Grade (CTCAE v4.0) / Relationship To Study Treatment: per event; for Toxicity Grade (CTCAE v4.0) / Relationship To Study Treatment / Event (adverse event term): 2 weeks oral; for Toxicity Grade (CTCAE v4.0) / Adverse Event (Yes/No) / Event (adverse event term): UA 300 mg/day, CURC 1200 mg/day; for Adverse Event (Yes/No) / Event (adverse event term): per subject; for Adverse Event (Yes/No): 2 weeks oral lipid capsules
Source text: We performed a standard 3 × 3 phase 1 design based on the safety evaluation of UA and CURC tested individually and then in combination (Study Schema in Supplemental Fig. 1). We modified the 3 × 3 design to include any toxicities because we selected the maximum dose due to the reported safety of large doses of these compounds. We enrolled subjects for a 2-week study period and used paired samples for individualized comparisons and pooled results for group comparisons.
We recruited healthy men enrolled in the San Antonio Biomarkers of Risk (SABOR) study, a community-based prostate cancer screening cohort. The San Antonio Biomarkers of Risk (SABOR) study cohort was funded by the 10.13039/100000054National Cancer Institute Early Detection Research Network-sponsored Clinical and Epidemiologic Validation Center since its nascent enrollment in 2000 (IRB# HSC20000030H). A separate IRB was approved for the Phase 1 trial (IRB# HSC20190940H). The participants had no prior diagnosis of prostate cancer at the time of enrollment and had varied prostate cancer risk profiles. We used data from the local UT Health San Antonio Data Safety and Monitoring Board (DSMB).
(§1) Safety was compared to evaluate the number, frequency, duration, and relationship of toxicity events to CURC and UA, as defined by the Common Terminology Criteria for Adverse Events (CTCAE) v. 4.03. The secondary outcomes included the measured plasma levels of UA, CURC, and selected metabolites. We also investigated the impact on the microbiome in a paired analysis for changes and the overall theme of imputed bacterial function.

[3] = test system: healthy men; test: Safety laboratory values, baseline vs end of two-week study; format: in vivo, human
Source text: as §1, with “4.03.” left out
Demographics between groups were compared using Fisher's exact test for categorical variables and Student's t-test for continuous variables. Laboratory safety values were analyzed using a paired t-test for differences, with significance set at p < 0.05. ANOVA was used to compare the plasma levels of UA, CURC, and CURC metabolites. Least significant difference (LSD) was used as the post-hoc analysis test to compare values between groups.
Laboratory analysis was performed at baseline and at the end of the two-week study. We then subtracted the values (week 2: baseline) to obtain the differences for each participant. […] Chronic kidney disease (CKD) is based on glomerulary filtration rate (GFR), and CKD stage 3 starts at a value below 60. […] Bicarbonate can be harmful if large changes occur in either direction, but clinicians are usually concerned about metabolic acidosis.

[4] = Human microsomal metabolism of UA alone or with CURC; format: in vitro ADME; conditions: UA 4 μM, HLM, NADPH, 37 °C
Procedure: The respective stock solutions were further diluted using MeOH to prepare calibration curve standards and working solutions. The diluent was prepared by spiking the IS (C-d6 and BA) in 100% MeOH to obtain a concentration of 100 ng/mL. The solutions were stored at −20 °C before use. […] Aliquots of 30 μL were collected at different time points, and the reaction was terminated by adding 120 μL of the diluent. Finally, the collected samples were vigorously vortexed, centrifuged for 10 min at 4 °C and 50 μL of the clear supernatant was transferred to LC-MS vials for analysis. UHPLC–MS analysis was performed using a Thermo Scientific Vanquish UHPLC system coupled with an Orbitrap IQ-X Tribrid mass spectrometer with an electrospray ionization (ESI) interface. […] The H-ESI interface was operated in negative ion mode with interface ion transfer tube temperature 320 °C, vaporizing temperature 250 °C, sheath gas 45 Arb, auxiliary gas 10 Arb, sweep gas 2 Arb, and detector voltage 3.5 kV. […] Data processing was performed using the Thermo Scientific Freestyle software (1.8. SP2 version).

[5] = CURC alone group, 1200 mg/day oral, day 14
[6] = combination group (CurcUA), day 14
[7] = adverse event Creatinine increased
[8] = week 2 minus baseline, n = 6 per group
[9] = Musculoskeletal domain adverse event
[10] = Nervous system domain adverse event

SMILES: COc1cc(/C=C/C(=O)CC(=O)/C=C/c2ccc(O[C@@H]3O[C@H](C(=O)O)[C@@H](O)[C@H](O)[C@H]3O)c(OC)c2)ccc1O [CURC glucuronide, curcumin glucuronide]
- CURC glucuronide plasma level, median [1, 5]: 24.0 ng/mL
- CURC glucuronide plasma level, median [1, 6]: 25 ng/mL

SMILES: COc1cc(/C=C/C(=O)CC(=O)/C=C/c2ccc(O)c(OC)c2)ccc1O [Curcumin, curcumin]
- Toxicity Grade (CTCAE v4.0) ([2]; adverse event Bloating): 2
- Toxicity Grade (CTCAE v4.0) [2, 7]: 1
- Relationship To Study Treatment [2, 7]: Unlikely
- Relationship To Study Treatment ([2]; adverse event Diarrhea): Possible
- Adverse Event (Yes/No) [2]: No and Yes
- Event (adverse event term) ([2]; adverse event Bloating): Bloating
- Event (adverse event term) [2, 7]: Creatinine increased
- Event (adverse event term) ([2]; adverse event Diarrhea): Diarrhea
- Event (adverse event term) ([2]; adverse event Flatulence): Flatulence
- GFR after 2 weeks, individual participant ([3]; baseline GFR 45 (CURC arm participant), 76 (CurcUA participant)): 46
- Creatinine after treatment in subject with event 'Creatinine increased' (Comments) ([3]; individual subjects, baselines 1.10, 1.0, 1.13): Creatine increased from 1.10 to 1.24; also recorded: Creatine increased from 1.0 to 1.21
- Difference in ALT, median (IQR) [3, 8]: −1.0 (−3.25 to 0.0)
- Difference in AST, median (IQR) [3, 8]: 2.0 (−2.0 to 3.3)
- Difference in Albumin, median (IQR) [3, 8]: 0.05 (−0.05 to 0.2)
- Difference in Alkaline Phosphatase, median (IQR) [3, 8]: −2.0 (−5.5 to 9.3)
- Difference in Bicarbonate, median (IQR) [3, 8]: −1.5 (−4.3 to 0.0)
- Difference in Bilirubin, median (IQR) [3, 8]: −0.1 (−0.3 to 0.0)
- Difference in Calcium, median (IQR) [3, 8]: 0.2 (−0.15 to 0.32)
- Difference in Chloride, median (IQR) [3, 8]: −0.5 (−1.3 to 0.8)
- Difference in Creatinine, median (IQR) [3, 8]: 0.07 (−0.07 to 0.16)
- Difference in Glomerular Filtration Rate (GFR), median (IQR) [3, 8]: −5.5 (−12.0 to 4.5)
- Difference in Hematocrit, median (IQR) [3, 8]: 0.25 (−1.45 to 2.35)
- Difference in Hemoglobin, median (IQR) [3, 8]: 0.20 (−0.30 to 0.55)
- Difference in Platelets, median (IQR) [3, 8]: 7.0 (−5 to 31.5)
- Difference in Sodium, median (IQR) [3, 8]: 0.0 (−1.5 to 1.0)
- Difference in White blood cell (WBC), median (IQR) [3, 8]: 0.15 (−0.43 to 0.68)
- CURC parent compound plasma level, median [1, 5]: 0.42 ng/mL
- Highest plasma level of CURC [1, 5]: 0.52 ng/mL
- CURC plasma level, median [1, 6]: 0.0 ng/mL

SMILES: C[C@H]1[C@H](C)CC[C@]2(C(=O)O)CC[C@]3(C)C(=CC[C@@H]4[C@@]5(C)CC[C@H](O)C(C)(C)[C@@H]5CC[C@]43C)[C@H]12 [Ursolic Acid, ursolic acid]
- UA remaining at 40 min ([4]; UA-only incubations): 47%
- UA remaining at 40 min ([4]; ratio 1:4 (UA: CURC)): 73%
- Number of low-grade gastrointestinal (GI)-related complaints attributed ([2]; CTCAE v4.03, n): 3
- Relationship To Study Treatment [2]: Unlikely
- Toxicity Grade (CTCAE v4.0) [2, 9]: 1
- Toxicity Grade (CTCAE v4.0) [2, 10]: 2
- Adverse Event (Yes/No) [2]: No and Yes
- Event (adverse event term) [2, 9]: Joint pain
- Event (adverse event term) [2, 10]: Vasovagal Reaction; also recorded: Pre-syncope
- Difference in ALT, median (IQR) [3, 8]: 1.5 (1.0–12.8)
- Difference in AST, median (IQR) [3, 8]: 2.0 (−1.3 to 3.3)
- Difference in Albumin, median (IQR) [3, 8]: 0.0 (−0.1 to 0.2)
- Difference in Alkaline Phosphatase, median (IQR) [3, 8]: 2.5 (−2.5 to 5.0)
- Difference in Bicarbonate, median (IQR) [3, 8]: 1.0 (−1.5 to 3.0)
- Difference in Bilirubin, median (IQR) [3, 8]: 0.0 (−0.08 to 0.15)
- Difference in Calcium, median (IQR) [3, 8]: 0.03 (−0.05 to 0.48)
- Difference in Chloride, median (IQR) [3, 8]: −1.0 (−2.75 to 1.75)
- Difference in Creatinine, median (IQR) [3, 8]: −0.08 (−0.33 to 0.12)
- Difference in Hematocrit, median (IQR) [3, 8]: 1.55 (−0.85 to 2.85)
- Difference in Hemoglobin, median (IQR) [3, 8]: 0.20 (−0.33 to 0.58)
- Difference in Platelets, median (IQR) [3, 8]: 9.5 (2.5–27)
- Difference in Sodium, median (IQR) [3, 8]: 0.5 (−1.5 to 2.25)
- Difference in White blood cell (WBC), median (IQR) [3, 8]: 0.20 (−0.23 to 0.85)
- Cmax ([1]; UA alone group, UA 300 mg/day oral): 2.7 ng/mL
- Cmax ([1]; combination group (CurcUA), UA 300 mg/day + CURC 1200 mg/day oral): 43.8 ng/mL
- Increase of UA plasma levels, combination vs UA alone ([1]; median 2.7 to 43.8 ng/mL): 16 fold
